In the supplement of paper PMC5579334:
± gives the standard deviation of the averaged measurements.

Legend:
ST8814 [1] = assay: drug sensitivity score (DSS, CellTiter-Glo viability, 72 h) (DSS (dimensionless)); higher = more sensitive; extreme values may be limits of the assay
How it was run: (§1)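 MPNST cell lines and primary human Schwann cells were seeded at 750–1000 cells per well into 384-well plates preprinted with each compound at five concentrations in 10-fold steps, then incubated 72 h at 37 °C, 5% CO2. CellTiter-Glo ATP luminescence gave viability, scaled between vehicle and positive-control wells, with duplicates averaged where present. Curves were fitted with a four-parameter logistic model. Percent inhibition refers to the top concentration, while drug sensitivity score and relative IC50, censored at the top concentration, come from these fits.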

HS-Sch-2 [2] = assay: as above
How it was run: as §1

[3] = tested on: HSC2 (primary human Schwann cells); assay: as above
How it was run: as §1

STS26T [4] = assay: as above
How it was run: as §1

[5] = tested on: HSC1 (primary human Schwann cells); assay: as above
How it was run: as §1

HS-PSS [6] = assay: as above
How it was run: as §1

S1507-2 [7] = assay: as above
How it was run: as §1

S462 [8] = assay: as above
How it was run: as §1

YST-1 [9] = assay: as above
How it was run: as §1

ST8814 [10] = assay: % inhibition of CellTiter-Glo viability at highest tested concentration (72 h), relative to DMSO and benzethonium chloride controls; higher = more inhibition
How it was run: as §1

HS-Sch-2 [11] = assay: as above
How it was run: as §1

[12] = tested on: HSC2 (primary human Schwann cells); assay: as above
How it was run: as §1

STS26T [13] = assay: as above
How it was run: as §1

[14] = tested on: HSC1 (primary human Schwann cells); assay: as above
How it was run: as §1

HS-PSS [15] = assay: as above
How it was run: as §1

S1507-2 [16] = assay: as above
How it was run: as §1

S462 [17] = assay: as above
How it was run: as §1

YST-1 [18] = assay: as above
How it was run: as §1

ST8814 [19] = assay: drug sensitivity score (DSS, CellTox-Green cytotoxicity, 72 h) (DSS (dimensionless)); higher = more cytotoxic; extreme values may be limits of the assay
How it was run: (§2)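 For 72 h at 37 °C, MPNST cell lines and primary human Schwann cells were exposed in 384-well plates to five 10-fold compound dilutions. CellTox-Green, added before seeding at a final 1:1000 dilution, gave fluorescence from DNA released by disrupted cells. Signals were scaled to vehicle and positive-control wells, cultures failing plate quality control were left out, and four-parameter logistic fits were applied. Relative IC50 and drug sensitivity score were derived from the fits, with IC50 censored at the top concentration.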

[20] = tested on: HSC2 (primary human Schwann cells); assay: as above
How it was run: as §2

STS26T [21] = assay: as above
How it was run: as §2

[22] = tested on: HSC1 (primary human Schwann cells); assay: as above
How it was run: as §2

HS-PSS [23] = assay: as above
How it was run: as §2

S1507-2 [24] = assay: as above
How it was run: as §2

Structure (SMILES) | drug sensitivity score (ST8814 [1]) | drug sensitivity score (HS-Sch-2 [2]) | drug sensitivity score [3] | drug sensitivity score (STS26T [4]) | drug sensitivity score [5] | drug sensitivity score (HS-PSS [6]) | drug sensitivity score (S1507-2 [7]) | drug sensitivity score (S462 [8]) | drug sensitivity score (YST-1 [9]) | % inhibition (ST8814 [10]) | % inhibition (HS-Sch-2 [11]) | % inhibition [12] | % inhibition (STS26T [13]) | % inhibition [14] | % inhibition (HS-PSS [15]) | % inhibition (S1507-2 [16]) | % inhibition (S462 [17]) | % inhibition (YST-1 [18]) | drug sensitivity score (ST8814 [19]) | drug sensitivity score [20] | drug sensitivity score (STS26T [21]) | drug sensitivity score [22] | drug sensitivity score (HS-PSS [23]) | drug sensitivity score (S1507-2 [24])
Nc1ncn([C@H]2C[C@H](O)[C@@H](CO)O2)c(=O)n1 [Decitabine] (max concentration tested 10000 nM) | 1.82 | 2.19 | 1.61 | 0.745 | 3.33 | 0 | 0.377 ± 0.53 | 4.99 ± 0.29 | 0 | 18.8% | 27.8% | 27.7% | 16.2% | 20.3% | 4.62% | 16.3 ± 5.8% | 37.4 ± 5.4% | 4.17% | 0 | 0 | 0 | 0 | 0 | 0.342 ± 0.48
OC[C@H]1O[C@@H](n2cnc3c2N=CNC[C@H]3O)C[C@@H]1O [Pentostatin] (max concentration tested 10000 nM) | 0 | 0 | 0 | 0 | 0 | 0 | 0 | 0 | 1.08 | -0.684% | 8.51% | 0.65% | -3.81% | 4.07% | 6.06% | -4.44 ± 9.6% | -16.1 ± 7.5% | 9.08% | 0 | 0 | 0 | 0 | 0 | 0
Nc1cccc2c1C(=O)N(C1CCC(=O)NC1=O)C2=O (configuration not stated) [Pomalidomide] (max concentration tested 10000 nM) | 0 | 0 | 0 | 0 | 0 | 0 | 0 | 0.575 ± 0.81 | 0 | 8.53% | -6.26% | -10.6% | 2.08% | 8.79% | -13.4% | -0.849 ± 0.56% | 8.99 ± 10% | -0.59% | 0 | 0 | 0 | 0 | 0 | 0.571 ± 0.72
Sc1ncnc2nc[nH]c12 [Mercaptopurine] (max concentration tested 10000 nM) | 10.2 | 7.89 | 0 | 7.5 | 0 | 1.06 | 0 | 5.81 ± 1.6 | 0.53 | 43.7% | 59.9% | 3.85% | 74.5% | -2.23% | 18.8% | 7.52 ± 1.2% | 62.5 ± 20% | 13.2% | 0 | 0 | 0.135 | 0 | 0 | 0
Nc1nc2[nH]cnc2c(=S)[nH]1 [Thioguanine] (max concentration tested 10000 nM) | 10.7 | 8.53 | 0 | 10.6 | 0.0001 | 7.46 | 4.38 ± 1.2 | 7.88 ± 0.29 | 8.84 | 80.4% | 79.2% | -7.39% | 81% | 10.4% | 76.4% | 60.8 ± 2.1% | 74.5 ± 5.8% | 88.8% | 0.689 | 0 | 4.01 | 0 | 0 | 0.992 ± 1.4
CO[C@H]1C[C@@H]2CC[C@@H](C)[C@@](O)(O2)C(=O)C(=O)N2CCCC[C@H]2C(=O)O[C@H]([C@H](C)C[C@@H]2CC[C@@H](OC(=O)C(C)(CO)CO)[C@H](OC)C2)CC(=O)[C@H](C)/C=C(\C)[C@@H](O)[C@@H](OC)C(=O)[C@H](C)C[C@H](C)/C=C/C=C/C=C/1C [Temsirolimus] (max concentration tested 100 nM) | 6.83 | 5.67 | 16.5 | 14.4 | 17.5 | 7.73 | 7.14 ± 2.6 | 6.03 ± 0.88 | 9.18 | 23.2% | 29.2% | 51.2% | 47.2% | 47% | 30.8% | 28.4 ± 1.3% | 31.8 ± 11% | 46.1% | 0 | 0 | 0 | 0 | 0 | 0.915 ± 1.3
O=S(=O)(c1cccc2cnccc12)N1CCCNCC1 [Fasudil] (max concentration tested 50000 nM) | 0.609 | 3.75 | 1.36 | 2.86 | 1.41 | 1.83 | 1.02 ± 0.16 | 3.84 ± 0.63 | 2.59 | 22.3% | 71.5% | 31.8% | 58.9% | 27.6% | 45.6% | 30.5 ± 1.5% | 70.6 ± 9.4% | 51% | 0 | 0 | 0.899 | 0.888 | 0.2 | 0
COc1cc2c(NC3CCN(C(C)C)CC3)nc(N3CCC(F)(F)CC3)nc2cc1OCCCN1CCCC1 [UNC0642] (max concentration tested 10000 nM) | 5.87 | 6.08 | 0 | 5.57 | 0 | 6.56 | 8.23 ± 0.62 | 5.99 ± 0.77 | 5.26 | 99.1% | 100% | 7.25% | 96.5% | 7.89% | 99.3% | 101.9 ± 0.52% | 93 ± 3% | 94.9% | 5.37 | 0 | 6.03 | 0 | 4.78 | 7.07 ± 1.3
CN(C)c1nc(N(C)C)nc(N(C)C)n1 [Altretamine] (max concentration tested 10000 nM) | 0 | 0 | 0 | 0 | 0 | 0 | 0 | 0 | 0 | -6.95% | -1.37% | -0.459% | 5.66% | 6.31% | -1.71% | -7.42 ± 0.53% | -12.7 ± 1.5% | 9.76% | 0 | 0 | 0 | 0 | 0 | 0.0018 ± 0.0026
C#Cc1cccc(Nc2ncnc3cc(OC)c(OCCCCCCC(=O)NO)cc23)c1 [CUDC-101] (max concentration tested 10000 nM) | 12.3 | 15.7 | 15 | 8.5 | 15.8 | 12.6 | 11.9 ± 0.6 | 13.3 ± 1.8 | 20.8 | 102% | 101% | 102% | 100% | 102% | 95% | 103 ± 1.6% | 102.2 ± 0.43% | 99.1% | 9.2 | 11.8 | 6 | 11 | 6.98 | 9.97 ± 2.9
C=C(c1ccc(C(=O)O)cc1)c1cc2c(cc1C)C(C)(C)CCC2(C)C [Bexarotene] (max concentration tested 10000 nM) | 0 | 0 | 0 | 0 | 2.52 | 0 | 2.77 ± 0.55 | 0 | 0 | 5.83% | 4.76% | -0.128% | -8.14% | 11.7% | -11.5% | 22.7 ± 3.6% | -9.52 ± 9.1% | -1.34% | 0 | 0 | 0 | 0 | 0 | 1.23 ± 0.75
CN(C)CCN1C(=O)c2cccc3cc(N)cc(c23)C1=O [Amonafide] (max concentration tested 10000 nM) | 8.9 | 8.84 | 6.42 | 5.83 | 7.05 | 6.59 | 8.84 ± 0.35 | 8.23 ± 0.65 | 11.1 | 101% | 99.9% | 76.3% | 78.7% | 69.3% | 93.8% | 90.4 ± 2% | 90.9 ± 2.4% | 100% | 3.57 | 0.087 | 0.0609 | 0 | 4.02 | 2.18 ± 0.64
Cc1cnc(Nc2ccc(F)cc2Cl)nc1-c1c[nH]c(C(=O)N[C@H](CO)c2cccc(Cl)c2)c1 [VX-11E] (max concentration tested 2500 nM) | 3.25 | 6.97 | 4.46 | 1.5 | 3.7 | 2.39 | 1.62 ± 0.29 | 0.861 ± 0.47 | 0 | 67.8% | 71.8% | 71.8% | 34% | 64.2% | 44.5% | 40.7 ± 3% | 29.1 ± 8.6% | 6.16% | 5.09 | 4.5 | 2.55 | 2 | 0 | 2.31 ± 3.2
